Legend:
Assay type in all cases: cell-based
[1] = molecular target: T1, PPARγ (Homo sapiens, UniProt P37231); experiment: PPAR-gamma EC50, functional cell (transactivation) assay
T1 construct: expressed in transfected cells; host or cells: CV-1 cells
T1 sequence (P37231 238-503 limits assumed): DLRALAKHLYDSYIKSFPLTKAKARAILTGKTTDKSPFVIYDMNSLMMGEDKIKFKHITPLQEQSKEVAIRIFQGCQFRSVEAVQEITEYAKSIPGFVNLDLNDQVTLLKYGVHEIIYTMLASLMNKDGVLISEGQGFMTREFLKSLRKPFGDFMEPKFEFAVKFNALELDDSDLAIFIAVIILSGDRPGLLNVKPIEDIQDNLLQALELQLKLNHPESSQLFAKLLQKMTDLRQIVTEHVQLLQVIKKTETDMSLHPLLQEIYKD
Source text: (§1) The following transfection assay methods are provided by way of example only. Compounds may be screened for functional potency in transient transfection assays in CV-1 cells for their ability to activate the PPAR subtypes (transactivation assay). A previously established chimeric receptor system was utilized to allow comparison of the relative transcriptional activity of the receptor subtypes on the same target gene and to prevent endogenous receptor activation from complicating the interpretation of results. See, for example, Lehmann, J. M.; Moore, L. B.; Smith-Oliver, T. A; Wilkinson, W. O.; Willson, T. M.; Kliewer, S. A., An antidiabetic thiazolidinedione is a high affinity ligand for peroxisome proliferator-activated receptor γ(PPARγ), J. Biol. Chem., 1995, 270, 12953-6. The ligand binding domains for murine and human PPAR-alpha, PPAR-gamma, and PPAR-delta are each fused to the yeast transcription factor GAL4 DNA binding domain. CV-1 cells were transiently transfected with expression vectors for the respective PPAR chimera along with a reporter construct containing five copies of the GAL4 DNA binding site driving expression of secreted placental alkaline phosphatase (SPAP) and p-galactosidase. After 16 h, the medium is exchanged to DME medium supplemented with 10% delipidated fetal calf serum and the test compound at the appropriate concentration. After an additional 24 h, cell extracts are prepared and assayed for alkaline phosphatase and pgalactosidase activity. Alkaline phosphatase activity was corrected for transfection efficiency using the p-galactosidase activity as an internal standard (see, for example, Kliewer, S. A., et. al. Cell 1995, 83, 813-819. Rosiglitazone is used as a positive control in the hPPARγ assay. The positive control in the hPPAR-alpha and hPPAR-delta assays was 2-[4-(2-(3-(4-fluorophenyl)-1heptylureido)ethyl)-phenoxy]-2-methylpropionic acid, which can be prepared as described in Brown, Peter J., et. al. Synthesis (7), 778-782 (1997), or patent publication WO 9736579.
(§2) Compounds of Examples 1-41 were assayed to measure their biological activity with respect to their EC50 values and efficacy for modulating PPAR-alpha, PPAR-gamma, and PPAR-delta as set forth in Table 2.

[2] = molecular target: T2, PPARα (Homo sapiens, UniProt Q07869); experiment: PPAR-alpha EC50, functional cell (transactivation) assay
T2 construct: expressed in transfected cells; host or cells: CV-1 cells
T2 sequence (Q07869 239-466 limits assumed): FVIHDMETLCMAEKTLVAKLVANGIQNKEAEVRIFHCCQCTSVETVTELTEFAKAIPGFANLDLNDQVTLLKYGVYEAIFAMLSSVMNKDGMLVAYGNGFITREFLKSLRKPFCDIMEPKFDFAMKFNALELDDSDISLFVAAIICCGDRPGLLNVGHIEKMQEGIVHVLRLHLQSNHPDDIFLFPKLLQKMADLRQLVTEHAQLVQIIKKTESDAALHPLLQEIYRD
Source text: as §1, §2

[3] = molecular target: T3, PPARδ (Homo sapiens, UniProt Q03181); experiment: PPAR-delta EC50, functional cell (transactivation) assay
T3 construct: expressed in transfected cells; host or cells: CV-1 cells
T3 sequence (Q03181 211-439 limits assumed): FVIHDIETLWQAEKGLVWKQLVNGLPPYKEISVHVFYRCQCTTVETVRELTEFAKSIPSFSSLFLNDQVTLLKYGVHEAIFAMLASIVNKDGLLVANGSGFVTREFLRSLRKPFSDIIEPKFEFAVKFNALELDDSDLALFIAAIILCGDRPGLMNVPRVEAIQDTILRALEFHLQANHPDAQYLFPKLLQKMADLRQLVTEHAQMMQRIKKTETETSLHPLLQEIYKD
Source text: as §1, §2

Compound | EC50 [1] | EC50 [2] | EC50 [3]
Cc1cc(S(=O)(=O)N2CCN(c3ccccc3)CC2)ccc1OC(C)(C)C(=O)O | 1 to 100 µM | > 100 µM | 1000 to 100000 nM
COc1ccccc1N1CCN(S(=O)(=O)c2ccc(OC(C)(C)C(=O)O)c(C)c2)CC1 | 1 to 100 µM | > 100 µM | 1000 to 100000 nM
Cc1cc(S(=O)(=O)N2CCN(C(=O)c3ccco3)CC2)ccc1OC(C)(C)C(=O)O | > 100 µM | > 100 µM | 1000 to 100000 nM
CCc1cnc(N2CCN(S(=O)(=O)c3ccc(OC(C)(C)C(=O)O)cc3)CC2)nc1 | 1 to 100 µM | 1 to 100 µM | 1000 to 100000 nM
Cc1cc(S(=O)(=O)N2CCN(c3ccc(Cl)c(Cl)c3)CC2)ccc1OC(C)(C)C(=O)O | 1 to 100 µM | 1 to 100 µM | < 1000 nM
Cc1cc(S(=O)(=O)N2CCN(c3cccc(Cl)c3)CC2)ccc1OC(C)(C)C(=O)O | 1 to 100 µM | > 100 µM | 1000 to 100000 nM
Cc1cc(S(=O)(=O)N2CCN(c3cc(Cl)ccc3C)C(C)C2)ccc1OC(C)(C)C(=O)O (stereo not drawn) | > 100 µM | > 100 µM | 1000 to 100000 nM
COc1cccc(N2CCN(S(=O)(=O)c3ccc(OC(C)(C)C(=O)O)c(C)c3)CC2)c1 | 1 to 100 µM | 1 to 100 µM | 1000 to 100000 nM
Cc1cc(S(=O)(=O)N2CCN(c3ccc(C(C)(C)C)cc3)CC2)ccc1OC(C)(C)C(=O)O | 1 to 100 µM | > 100 µM | 1000 to 100000 nM
CC(C)(Oc1ccc(S(=O)(=O)N2CCN(c3ccccn3)CC2)cc1)C(=O)O | > 100 µM | > 100 µM | > 100000 nM
Cc1ccc(N2CCN(S(=O)(=O)c3ccc(OC(C)(C)C(=O)O)c(C)c3)CC2C)cc1C (stereo not drawn) | > 100 µM | > 100 µM | 1000 to 100000 nM
Cc1ccc(N2CCN(S(=O)(=O)c3ccc(OC(C)(C)C(=O)O)cc3)CC2)c(C)c1 | > 100 µM | 1 to 100 µM | 1000 to 100000 nM
CC(C)(Oc1ccc(S(=O)(=O)N2CCN(c3ccccc3)CC2)cc1)C(=O)O | > 100 µM | > 100 µM | 1000 to 100000 nM
Cc1cc(S(=O)(=O)N2CCN(c3cccc(Br)c3)CC2)ccc1OC(C)(C)C(=O)O | 1 to 100 µM | > 100 µM | < 1000 nM
Cc1cccc(N2CCN(S(=O)(=O)c3ccc(OC(C)(C)C(=O)O)cc3)CC2C)c1 (stereo not drawn) | > 100 µM | > 100 µM | 1000 to 100000 nM
CC(C)(Oc1ccc(S(=O)(=O)N2CCN(c3ccc(Cl)c(Cl)c3)CC2)cc1)C(=O)O | 1 to 100 µM | 1 to 100 µM | 1000 to 100000 nM
CC(C)(Oc1ccc(S(=O)(=O)N2CCN(c3ccccc3F)CC2)cc1)C(=O)O | > 100 µM | > 100 µM | 1000 to 100000 nM
Cc1ccc(C)c(N2CCN(S(=O)(=O)c3ccc(OC(C)(C)C(=O)O)c(C)c3)CC2)c1 | 1 to 100 µM | > 100 µM | 1000 to 100000 nM
Cc1cc(S(=O)(=O)N2CCN(C(c3ccc(F)cc3)c3ccc(F)cc3)CC2)ccc1OC(C)(C)C(=O)O | 1 to 100 µM | 1 to 100 µM | 1000 to 100000 nM
CC(C)(Oc1ccc(S(=O)(=O)N2CCN(c3ccc(F)cc3)CC2)cc1)C(=O)O | > 100 µM | > 100 µM | 1000 to 100000 nM
Cc1cc(S(=O)(=O)N2CCN(c3ccccc3C#N)CC2)ccc1OC(C)(C)C(=O)O | 1 to 100 µM | > 100 µM | 1000 to 100000 nM
